{
  "source": "patent US4120896A",
  "about": "“S-Phenenyltris(sulfonylimino)tri-anionic substituted benzene dicarboxylic acids and substituted alkyl amino acids and their salts” (America Cyanamid Company, priority 1977, dated 1978)",
  "key": {"[1]": {"tested_on": "hereditary angioneurotic edema", "settings": "literature report, New England J. Med. 286, 808-812 (1972); cited from earlier work"}, "complement system": {"tested_on": "complement system", "settings": "literature report; cited from earlier work"}, "[2]": {"tested_on": "human serum total hemolytic complement", "settings": "in vitro and in vivo, Pathologie Biologie 25, 33-36 (1977); cited from earlier work"}, "whole complement": {"tested_on": "whole complement", "assay": "In vivo activity: whole complement level of serum of dosed guinea pigs, capillary tube assay", "settings": "guinea pig; for inhibition at 200 mg/kg: Cavia porcellus, iv, 200 mg/kg i.v.; for % Inhibition, Intraperitoneal, 30 min / % Inhibition, Intraperitoneal, 60 min / % Inhibition, Intraperitoneal, 120 min: 200 mg/kg i.p., 200 mg/kg", "text": "(§1) An active inhibitor protects C2 from C1 and C4; (ii) Test, Code 035 (C3-C9 inhibitor) - This test determines the ability of the late components of human complement (C3-C9) to lyse EAC 142 in the presence of appropriate dilutions of the test compound. An active inhibitor protects EAC 142 from lysis by human C3-C9; (iii) Test, Code 036 (C-Shunt inhibitor) - In this test human erythrocytes rendered fragile are lysed in autologous serum via the shunt pathway activated by cobra venom factor in the presence of appropriate dilutions of the test compound. Inhibition of the shunt pathway results in failure of lysis; (iv) Forssman Vasculitis Test - Here, the well known complement dependent lesion, Forssman vasculitis, is produced in guinea pigs by intradermal injection of rabbit anti-Forssman antiserum. The lesion is measured in terms of diameter, edema and hemorrhage and the extent to which a combined index of these is inhibited by prior intraperitoneal injection of the test compound at 200 mg/kg is then reported, unless otherwise stated; (v) Forssman Shock Test - Lethal shock is produced in guinea pigs by an i.v. injection of anti-Forssman antiserum and the harmonic mean death time of treated guinea pigs is compared with that of simultaneous controls; (vi) Complement Level Reduction Test -- In this test, the above dosed guinea pigs, or others, are bled for serum and the complement level is determined in undiluted serum by the capillary tube method of U.S. Pat. No. 3,876,376 and compared to undosed control guinea pigs; and (vii) Cap 50 Test -- Here, appropriate amounts of the test compound are added to a pool of guinea pig serum in vitro, after which the undiluted serum capillary tube assay referred to above is run. The concentration of compound inhibiting 50% is reported.\nWith reference to Table I, guinea pigs weighing about 300 g were dosed intravenously (i.v.) or intraperitoneally (i.p.) with 200 mg/kg of the test compound dissolved in saline and adjusted to pH 7-8. […] The serum was tested for whole complement using the capillary tube assay. Percent inhibition was calculated by comparison with simultaneous controls. The results appear in Table I together with results of tests, code 026, 035, 036, Cap 50, % inhibition and Forssman shock."}, "citrated sheep plasma": {"tested_on": "citrated sheep plasma", "assay": "In vitro anti-coagulant activity (AC): clotting of recalcified citrated sheep plasma with sheep RBC", "type": "biochemical", "settings": "for AC Wells: Table I, two-fold serial dilution, higher well number indicates higher activity, sodium heparin positive control; for Anti-coagulant Activity (Wells) AC: Table II, in vitro", "protocol": "The sheep RBC's, kept in suspension throughout the clotting incubation time, become enmeshed in the fibrin matrix if a clot forms. Upon centrifugation of the plate, untrapped RBC's form buttons, the sizes of which correspond to the degree of clot inhibition; this providing a measure of anti-coagulant activity (AC). Sodium heparin is used as a positive control and activity is reported in wells appearing in Table 1.\n(§2) **Activity in wells a serial dilution assay. Higher well number indicates\n(§3) higher activity. The serial dilutions are two -fold."}, "[3]": {"tested_on": "anti-complement and anti-coagulant activities", "assay": "Intrinsic Therapeutic Index: separation of anti-complement (Code 026) and anti-coagulant (AC) activities", "settings": "for Intrinsic Therapeutic Index: antilogarithm (base 2) of the difference in wells; for Logarithmic Difference Expressed As Wells: log base 2 difference, Code 026 minus AC", "text": "The computation of an Intrinsic Therapeutic Index (ITI) was devised to correlate the results expressed in wells, obtained in the in vitro Code 026 (C1 inhibitor) test and the in vitro anti-coagulant (AC) test into a meaningful value which would aid in the net evaluation of the activity of the compounds of this invention.\nThe ITI is thus a measure of the separation of anti-complement and anti-coagulant activities; the higher the numerical value the more therapeutically useful the separation of activities."}, "activated human C1": {"molecular_target": "activated human C1 (Homo sapiens, UniProt P09871)", "assay": "Code 026 (C1 inhibitor) test: ability of activated human C1 to destroy fluid phase human C2 in presence of C4", "type": "biochemical", "settings": "for C1 026 Wells: Table I, two-fold serial dilution, higher well number indicates higher activity; for Complement Inhibiting Activity (Wells) Code 026: Table II, in vitro", "text": "as §1, §2, §3"}, "shunt pathway": {"tested_on": "shunt pathway", "assay": "Code 036 (C-Shunt inhibitor) test: lysis of fragile human erythrocytes in autologous serum via shunt pathway activated by cobra venom factor", "type": "cell-based", "settings": "Table I; two-fold serial dilution, higher well number indicates higher activity", "text": "An active inhibitor protects C2 from C1 and C4; (ii) Test, Code 035 (C3-C9 inhibitor) - This test determines the ability of the late components of human complement (C3-C9) to lyse EAC 142 in the presence of appropriate dilutions of the test compound. An active inhibitor protects EAC 142 from lysis by human C3-C9; (iii) Test, Code 036 (C-Shunt inhibitor) - In this test human erythrocytes rendered fragile are lysed in autologous serum via the shunt pathway activated by cobra venom factor in the presence of appropriate dilutions of the test compound. Inhibition of the shunt pathway results in failure of lysis; (iv) Forssman Vasculitis Test - Here, the well known complement dependent lesion, Forssman vasculitis, is produced in guinea pigs by intradermal injection of rabbit anti-Forssman antiserum. […]"}},
  "note": "“And” between values parts separate entries of the source, which are not always exact repeats. Equal values may be shown once. Where a name gives a salt, the structure may show the parent alone. Read-outs that look alike come from different tables or passages of the source.",
  "data": [
    {"compound": "Cc1ccc(C(=O)Nc2ccc(S(=O)(=O)O)c3cc(S(=O)(=O)O)cc(S(=O)(=O)O)c23)cc1NC(=O)c1cccc(NC(=O)Nc2cccc(C(=O)Nc3cc(C(=O)Nc4ccc(S(=O)(=O)O)c5cc(S(=O)(=O)O)cc(S(=O)(=O)O)c45)ccc3C)c2)c1", "note": "[Suramin]", "values": [
      {"measurement": "success in treatment of hereditary angioneurotic edema", "setting": "[1]", "result": "used with success"},
      {"measurement": "anticomplementary effect / complement inhibition", "setting": "complement system", "result": "competitive inhibitor of the complement system"}
    ]},
    {"compound": "pentosan-poly-sulfoester", "values": [
      {"measurement": "anticomplementary activity, reduction in total hemolytic complement activity", "setting": "[2]", "result": "anticomplementary activity on human serum both in vitro and in vivo"}
    ]},
    {"compound": "NC[C@H]1CC[C@H](C(=O)O)CC1", "note": "[tranexamic acid]", "values": [
      {"measurement": "success in treatment of hereditary angioneurotic edema", "setting": "[1]", "result": "used with success"}
    ]},
    {"compound": "O=C(O)c1cc(NS(=O)(=O)c2cc(S(=O)(=O)Nc3cc(C(=O)O)cc(C(=O)O)c3)cc(S(=O)(=O)Nc3cc(C(=O)O)cc(C(=O)O)c3)c2)cc(C(=O)O)c1", "note": "[5,5',5\"-[s-Phenenyltris(sulfonylimino)]tri-isophthalic acid] [listing 1 of 2 here]", "values": [
      {"measurement": "inhibition at 200 mg/kg", "setting": "whole complement; 2 min, 2 mins., read-out: % Inhibition, Intravenous, 2 min", "result": -88, "unit": "%"},
      {"measurement": "inhibition at 200 mg/kg", "setting": "whole complement; 0.5 h, 30 mins., read-out: % Inhibition, Intravenous, 30 min", "result": -66, "unit": "%"},
      {"measurement": "inhibition at 200 mg/kg", "setting": "whole complement; 2 h, 120 mins., read-out: % Inhibition, Intravenous, 120 min", "result": -53, "unit": "%"}
    ]},
    {"compound": "O=C(O)c1cc(NS(=O)(=O)c2cc(S(=O)(=O)Nc3ccc(O)c(C(=O)O)c3)cc(S(=O)(=O)Nc3ccc(O)c(C(=O)O)c3)c2)ccc1O", "note": "[5,5',5\"-[s-Phenenyltris(sulfonylimino)]trisalicylic acid]", "values": [
      {"measurement": "AC Wells", "setting": "citrated sheep plasma", "result": -2, "unit": "Wells"}
    ]},
    {"compound": "NCCCCCC(=O)O", "note": "[epsilon-aminocaproic acid]", "values": [
      {"measurement": "success in treatment of hereditary angioneurotic edema", "setting": "[1]", "result": "used with success"}
    ]},
    {"compound": "COC(=O)c1cc(NS(=O)(=O)c2cc(S(=O)(=O)Nc3ccc(O)c(C(=O)OC)c3)cc(S(=O)(=O)Nc3ccc(O)c(C(=O)OC)c3)c2)ccc1O", "note": "[5,5',5\"-[s-Phenenyltris(sulfonylimino)]trisalicyclic acid trimethyl ester]", "values": [
      {"measurement": "AC Wells", "setting": "citrated sheep plasma", "result": "≤ +1 Wells"}
    ]},
    {"compound": "Nc1ccc2cc(S(=O)(=O)O)cc(O)c2c1N=Nc1ccc(NC(=O)Nc2ccc(N=Nc3c(N)ccc4cc(S(=O)(=O)O)cc(O)c34)c(S(=O)(=O)O)c2)cc1S(=O)(=O)O", "note": "[chlorazol fast pink, 3,3'-ureylenebis-[6-(2-amino-8-hydroxy-6-sulfo-1-naphthylazo)]benzenesulfonic acid, tetrasodium salt]", "values": [
      {"measurement": "anticomplementary effect / complement inhibition", "setting": "complement system", "result": "anticomplementary effect"}
    ]},
    {"compound": "O=C(O)c1cc(NS(=O)(=O)c2cc(S(=O)(=O)Nc3cc(C(=O)O)cc(C(=O)O)c3)cc(S(=O)(=O)Nc3cc(C(=O)O)cc(C(=O)O)c3)c2)cc(C(=O)O)c1", "note": "[5,5',5\"-[s-Phenenyltris(sulfonylimino)]tri-isophthalic acid] [listing 2 of 2 here]", "values": [
      {"measurement": "% Inhibition, Intraperitoneal, 30 min", "setting": "whole complement; 30 mins.", "result": -74, "unit": "%"},
      {"measurement": "% Inhibition, Intraperitoneal, 60 min", "setting": "whole complement", "result": -74, "unit": "%"},
      {"measurement": "% Inhibition, Intraperitoneal, 120 min", "setting": "whole complement; 120 mins.", "result": -74, "unit": "%"},
      {"measurement": "Intrinsic Therapeutic Index", "setting": "[3]", "result": "512 and 256"}
    ]},
    {"compound": "O=C(O)c1cc(NS(=O)(=O)c2cc(S(=O)(=O)Nc3cc(C(=O)O)c(O)c(C(=O)O)c3)cc(S(=O)(=O)Nc3cc(C(=O)O)c(O)c(C(=O)O)c3)c2)cc(C(=O)O)c1O", "note": "[5,5',5\"-[s-Phenenyltris(sulfonylimino)]tri-2-hydroxy-isophthalic acid]", "values": [
      {"measurement": "AC Wells", "setting": "citrated sheep plasma", "result": -1, "unit": "Wells"},
      {"measurement": "Anti-coagulant Activity (Wells) AC", "setting": "citrated sheep plasma", "result": -1, "unit": "Wells"},
      {"measurement": "C1 026 Wells", "setting": "activated human C1", "result": "+6 Wells"},
      {"measurement": "Complement Inhibiting Activity (Wells) Code 026", "setting": "activated human C1", "result": "+6 Wells"},
      {"measurement": "Shunt Inhibition 036 Wells", "setting": "shunt pathway", "result": "+1 Wells"},
      {"measurement": "Intrinsic Therapeutic Index", "setting": "[3]", "result": 128},
      {"measurement": "Logarithmic Difference Expressed As Wells", "setting": "[3]", "result": "+7 Wells"}
    ]},
    {"compound": "COCCOC(=O)c1cc(NS(=O)(=O)c2cc(S(=O)(=O)Nc3cc(C(=O)OCCOC)cc(C(=O)OCCOC)c3)cc(S(=O)(=O)Nc3cc(C(=O)OCCOC)cc(C(=O)OCCOC)c3)c2)cc(C(=O)OCCOC)c1", "note": "[5,5',5\"-[s-Phenenyltris(sulfonylimino)]tri-isophthalic acid hexakis(2-methoxyethyl)ester]", "values": [
      {"measurement": "AC Wells", "setting": "citrated sheep plasma", "result": "< 0", "unit": "Wells"}
    ]},
    {"compound": "COC(=O)c1cc(NS(=O)(=O)c2cc(S(=O)(=O)Nc3cc(C(=O)OC)c(O)c(C(=O)OC)c3)cc(S(=O)(=O)Nc3cc(C(=O)OC)c(O)c(C(=O)OC)c3)c2)cc(C(=O)OC)c1O", "note": "[5,5',5\"-[s-Phenenyltris(sulfonylimino)]tri-2-hydroxy isophthalic acid hexamethyl ester]", "values": [
      {"measurement": "AC Wells", "setting": "citrated sheep plasma", "result": -1, "unit": "Wells"}
    ]},
    {"compound": "heparin", "values": [
      {"measurement": "anticomplementary effect / complement inhibition", "setting": "complement system", "result": "anticomplementary effect"}
    ]},
    {"compound": "O=C(O)c1cc(NS(=O)(=O)c2cc(S(=O)(=O)Nc3cc(C(=O)O)cc(C(=O)O)c3)cc(S(=O)(=O)Nc3cc(C(=O)O)cc(C(=O)O)c3)c2)cc(C(=O)O)c1", "note": "[5,5',5\"-[s-Phenenyltris(sulfonylimino)]tri-isophthalic acid ] [5,5',5\"-[s-Phenenyltris(sulfonylimino)]tri-isophthalic acid hexasodium salt, trisodium derivative compound with ethyl alcohol (2:5)]", "values": [
      {"measurement": "AC Wells", "setting": "citrated sheep plasma", "result": -1, "unit": "Wells"},
      {"measurement": "Anti-coagulant Activity (Wells) AC", "setting": "citrated sheep plasma", "result": -1, "unit": "Wells"},
      {"measurement": "% Inhibition, Intraperitoneal, 30 min", "setting": "whole complement; 30 mins.", "result": -62, "unit": "%"},
      {"measurement": "% Inhibition, Intraperitoneal, 60 min", "setting": "whole complement", "result": -53, "unit": "%"},
      {"measurement": "% Inhibition, Intraperitoneal, 120 min", "setting": "whole complement; 120 mins.", "result": -49, "unit": "%"},
      {"measurement": "C1 026 Wells", "setting": "activated human C1", "result": "+5 Wells"},
      {"measurement": "Complement Inhibiting Activity (Wells) Code 026", "setting": "activated human C1", "result": "+5 Wells"},
      {"measurement": "Intrinsic Therapeutic Index", "setting": "[3]", "result": 64},
      {"measurement": "Logarithmic Difference Expressed As Wells", "setting": "[3]", "result": "+6 Wells"}
    ]}
  ]
}
